Paper PMC8766756, “Insights on Cancer Cell Inhibition, Subcellular Activities, and Kinase Profile of Phenylacetamides Pending 1H-Imidazol-5-One Variants” (Frontiers in Pharmacology, 2022)
Entries after “also recorded” stand apart in the source; their conditions may differ.

Experiments:
HSP27 (S78/S82) = test: Human Phospho-Kinase Array in HL60 cells; type: cell-based
Source text: (§1) We also measured changes in kinase activities of some selected Ser/Thr kinases using the Human Phospho-Kinase Array® kit (R&D Systems) which encompasses phosphoprotein-specific capture antibodies spotted at a certain location (in duplicates) on a nitrocellulose membrane. The signal intensities, detected by a sandwich immunoassay, are proportional to the amount of each phosphokinase in the cell lysate (Figure 8).
(§2) FIGURE 8 Phosphokinase proteome profile of KIM-161 in HL60 cell line. (A) Cells lysates were prepared after 10 h treatment with KIM-161 and applied to the membranes prespotted with the different antibodies. […] The height of each bar represents the average intensity of certain protein signals in treated cells/untreated × 100. Therefore, the dotted line represents the control percentage (100%).
(§3) The phosphorylation profile of 48 kinases was performed using the Proteome Profiler Human Phospho-Kinase Array an antibody array kit, by R&D Systems (Minneapolis, MN, USA). Total protein was extracted from the cell lysates treated with 365 nM KIM-161 for 10 h using the lysis buffer provided in the kit and quantified using the Bio-Rad DC Protein Assay kit (USA). The nitrocellulose membrane set (A&B), pre-spotted with the capture antibodies, was first blocked with 1 ml of Array buffer 1 at RT for 1 h in an 8-well multi-dish on a rocking platform shaker. Approximately 600 µg of protein concentrate (<334 µL) was diluted in the Array buffer 1 to a final volume of 2 ml. 1 ml of the protein sample was added onto the membrane set and incubated overnight at 4°C on a rocking platform shaker. Subsequently, membranes were washed with 15 ml of 1× wash buffer thrice for 5 min at RT, and the excess buffer was completely drained. The membranes A&B were then incubated with appropriate detection antibody cocktails A&B that were reconstituted using the 1× Array buffer 2/3 for 2 h at RT. After the incubation was complete, the membranes were washed with 15 ml of 1× wash buffer thrice for 5 min at RT, and the excess buffer was completely drained. Streptavidin-HRP (1:2000), diluted in 1× Array buffer 2/3, was applied onto the membranes and incubated for 30 min at RT on a rocking platform shaker. The membranes were washed thrice, and Chemi Reagent 1&2 were applied in equal volumes for detection on C-DiGit®Blot Scanner (LI-COR Odyssey Imaging Systems, Lincoln, Nebraska, USA) using the Image Studio 5.0 software.

C-Jun = test: Human Phospho-Kinase Array in HL60 cells; type: cell-based
Source text: as §1, §2, §3

STAT2 (Y689) = test: Human Phospho-Kinase Array in HL60 cells; type: cell-based
Source text: as §1, §2, §3

JNK 1/2/3 = test: Human Phospho-Kinase Array in HL60 cells; type: cell-based
Source text: as §1, §2, §3

AMPKα1 = test: Human Phospho-Kinase Array in HL60 cells; type: cell-based
Source text: as §1, §2, §3

[1] = tested on: ERK1/2 (T202/Y204, T185/Y187); test: Human Phospho-Kinase Array in HL60 cells; type: cell-based
Source text: as §1, §2, §3

HSP60 = test: Human Phospho-Kinase Array in HL60 cells; type: cell-based
Source text: as §1, §2, §3

CREB = test: Human Phospho-Kinase Array in HL60 cells; type: cell-based
Source text: as §1, §2, §3

Chk-2 = test: Human Phospho-Kinase Array in HL60 cells; type: cell-based
Source text: as §1, §2, §3

AKT 1/2/3 = test: Human Phospho-Kinase Array in HL60 cells; type: cell-based; details: 10 h (KIM-161 365 nM)
Source text: as §1, §2, §3

GSK-3α/β (S21/S9) = test: Human Phospho-Kinase Array in HL60 cells; type: cell-based
Source text: as §1, §2, §3

[2] = Stability in mouse plasma; type: in vitro ADME; details: 1 µM, t1/2; listed as KIM-161
Protocol: The assay was conducted at 37°C in triplicate. The test compound KIM-161 or procaine (the positive control) was tested at a final concentration of 1 µM in either 2.5% DMSO/CD-1 mouse plasma (Innovative Research, Novi, MI; sodium heparin added as anticoagulant; pH adjusted to 7.4 with 2N HCl on the day of use) or 2.5% DMSO/PBS (pH 7.4; 136.9 mM NaCl, 2.68 mM KCl, 8.1 mM Na2HPO4, 1.47 mM KH2PO4, 0.9 mM CaCl2, and 0.49 mM MgCl2). At seven time points, the reaction mixture aliquots were transferred to 96-shallow-well stop plates on ice containing acetonitrile with 0.1 µM propafenone. Samples were analyzed by LC/MS/MS on a Waters Xevo TQ instrument as described above using positive electrospray ionization. The assay acceptance criterion was 20% for all standards and 25% for the LLOQ. GraphPad® Prism v.5.04 was used for nonlinear fitting of data to generate t1/2 values.

[3] = HL60, 365 nM, 10 h, vs untreated, listed as KIM-161
[4] = HSP27 spot, HL60 cells, 10 h (KIM-161 365 nM)
[5] = C-Jun spot, HL60 cells, 10 h (KIM-161 365 nM)
[6] = HL60, 365 nM, 10 h, vs untreated
[7] = STAT2 spot, HL60 cells, 10 h (KIM-161 365 nM)
[8] = JNK 1/2/3 spot, HL60 cells, 10 h (KIM-161 365 nM)
[9] = AMPKα1 spot, HL60 cells, 10 h (KIM-161 365 nM)
[10] = ERK1/2 spot, HL60 cells, 10 h (KIM-161 365 nM)
[11] = HSP60 spot, HL60 cells, 10 h (KIM-161 365 nM)
[12] = CREB spot, HL60 cells, 10 h (KIM-161 365 nM)
[13] = Chk-2 spot, HL60 cells, 10 h (KIM-161 365 nM)
[14] = GSK-3α/β spot, HL60 cells, 10 h (KIM-161 365 nM)

COc1ccc(/C=C2\N=C(C)N(c3ccc(CC(=O)NCc4ccccc4)cc3)C2=O)cc1 [Compound 4c, (Z)-N-Benzyl-2-(4-(4-(4-methoxybenzylidene)-2-methyl-5-oxo-4,5-dihydro-1H-imidazol-1-yl)phenyl)acetamide]
change of HSP27 phosphokinase signal (HSP27 (S78/S82); [3]): strongly suppresses; also recorded: strong downregulation | Normalized to HK (HSP27 (S78/S82); [4]): 0.00 | Normalized x10K (HSP27 (S78/S82); [4]): 0.00 | Signal (HSP27 (S78/S82); [4]): 0.00 | activity at 0.365 µM (HSP27 (S78/S82); Homo sapiens, HL-60, HSP27 spot, HL60 cells, 10 h (KIM-161 365 nM), untreated = 100, read-out: % Ctrl): 0% | Normalized to HK (C-Jun; [5]): 0.1136 | Normalized x10K (C-Jun; [5]): 1136.44 | Signal (C-Jun; [5]): 451.20 | enhancement of c-Jun (C-Jun; [6]): 15.8% | activity at 0.365 µM (C-Jun; Homo sapiens, HL-60, C-Jun spot, HL60 cells, 10 h (KIM-161 365 nM), untreated = 100, read-out: % Ctrl): 116% | change of STAT2 phosphokinase signal (STAT2 (Y689); [3]): strongly suppresses; also recorded: strong downregulation | activity at 0.365 µM (STAT2 (Y689); Homo sapiens, HL-60, STAT2 spot, HL60 cells, 10 h (KIM-161 365 nM), untreated = 100, read-out: % Ctrl): 0% | Normalized to HK (STAT2 (Y689); [7]): 0.00 | Normalized x10K (STAT2 (Y689); [7]): 0.00 | Signal (STAT2 (Y689); [7]): 0.00 | reduction of JNK1/2/3 activity (JNK 1/2/3; [6]): 26.0% | activity at 0.365 µM (JNK 1/2/3; Homo sapiens, HL-60, JNK 1/2/3 spot, HL60 cells, 10 h (KIM-161 365 nM), untreated = 100, read-out: % Ctrl): 74% | Normalized to HK (JNK 1/2/3; [8]): 0.0031 | Normalized x10K (JNK 1/2/3; [8]): 31.34 | Signal (JNK 1/2/3; [8]): 11.01 | Normalized to HK (AMPKα1; [9]): 0.0019 | Normalized x10K (AMPKα1; [9]): 18.91 | Signal (AMPKα1; [9]): 6.64 | change of AMPKα1 phosphorylation (AMPKα1; [3]): downregulated; also recorded: to a quarter of its level compared to the control | activity at 0.365 µM (AMPKα1; Homo sapiens, HL-60, AMPKα1 spot, HL60 cells, 10 h (KIM-161 365 nM), untreated = 100, read-out: % Ctrl): 27.9% | Normalized to HK [1, 10]: 0.0000 | Normalized x10K [1, 10]: 0.00 | Signal [1, 10]: 0.00 | change of ERK1/2 phosphokinase signal [1, 3]: strongly suppresses; also recorded: strong downregulation | activity at 0.365 µM ([1]; Homo sapiens, HL-60, ERK1/2 spot, HL60 cells, 10 h (KIM-161 365 nM), untreated = 100, read-out: % Ctrl): 0% | reduction of HSP60 activity (HSP60; [6]): 28.5% | Normalized to HK (HSP60; [11]): 0.0227 | Normalized x10K (HSP60; [11]): 227.18 | Signal (HSP60; [11]): 90.20 | activity at 0.365 µM (HSP60; Homo sapiens, HL-60, HSP60 spot, HL60 cells, 10 h (KIM-161 365 nM), untreated = 100, read-out: % Ctrl): 71.5% | Normalized to HK (CREB; [12]): 0.0405 | Normalized x10K (CREB; [12]): 405.44 | Signal (CREB; [12]): 142.45 | reduction of CREB activity (CREB; [6]): 36.7% | activity at 0.365 µM (CREB; Homo sapiens, HL-60, CREB spot, HL60 cells, 10 h (KIM-161 365 nM), untreated = 100, read-out: % Ctrl): 63.3% | Normalized to HK (Chk-2; [13]): 0.00913 | Normalized x10K (Chk-2; [13]): 91.25 | Signal (Chk-2; [13]): 32.06 | change of Chk-2 activity (Chk-2; [6]): upregulated | Normalized to HK (AKT 1/2/3; AKT 1/2/3 spot): 0.00 | Normalized x10K (AKT 1/2/3; AKT 1/2/3 spot): 0.00 | Signal (AKT 1/2/3; AKT 1/2/3 spot): 0.00 | activity at 0.365 µM (AKT 1/2/3; Homo sapiens, HL-60, AKT 1/2/3 spot, untreated = 100, read-out: % Ctrl): 0% | Normalized to HK (GSK-3α/β (S21/S9); [14]): 0.0000 | Normalized x10K (GSK-3α/β (S21/S9); [14]): 0.00 | Signal (GSK-3α/β (S21/S9); [14]): 0.00 | change of GSK-3α/β phosphokinase signal (GSK-3α/β (S21/S9); [3]): strongly suppresses; also recorded: strong downregulation | activity at 0.365 µM (GSK-3α/β (S21/S9); Homo sapiens, HL-60, GSK-3α/β spot, HL60 cells, 10 h (KIM-161 365 nM), untreated = 100, read-out: % Ctrl): 0% | Stability in mouse plasma at 37°C [2]: >300 min
